Tested on: pre-melanoma
Assay: Photodynamic therapy of pre-melanoma around the excision site after surgical melanoma removal (patient case examples)
Format: in vivo, human
Method: The melanoma is surgically removed and the patient is treated for pre-melanoma using photodynamic therapy. The area around the point of excision of the melanoma is contacted with a composition which includes aminolevulinic acid methyl ester at about a 10% (w/w) and a penetrating agent, DMSO, at a concentration of about 10% (w/w). The composition is applied directly to and around the site of excision of the melanoma covering an area of approximately 100 cm^2. The application is repeated once an hour for an 8 hour period. The area is then exposed to light in the wavelength range of about 500 to about 700 nm for approximately 10 hours.
The melanoma is surgically removed and the patient is treated for pre-melanoma using photodynamic therapy. The area around the point of excision of the melanoma is contacted with an ointment which includes amino levulinic acid methyl ester at about 5% (w/w) and a penetrating agent, DMSO, at a concentration of about 15% (w/w). The ointment is applied directly to and around the site of excision of the melanoma. The site of application is covered with a semi-permeable membrane for 24 hours after which the application is repeated and again covered for a 24 hour period. The area is then exposed to light in the wavelength range of about 610 nm to about 670 nm for approximately 2 hours once a day for four straight days. […]

With `COC(=O)CCC(=O)CN` [aminolevulinic acid methyl ester] the “cancer status of patient after treatment” value (Example 3: thigh, superficial spreading melanoma removed, about 10% (w/w) with DMSO about 10% (w/w), topical, once an hour for 8 hours, light about 500 to about 700 nm approx. 10 hours, at one year after treatment) was “no sign of cancer” and the “cancer status of patient after surgery and treatment” value (Example 6: foot, acral lentiginous melanoma removed, ointment about 5% (w/w) with DMSO about 15% (w/w), two 24 hour applications, light about 610 nm to about 670 nm approx. 2 hours once a day for four days, two years after surgery) was “no sign of the cancer”.
